Laboratory results reported in ChEMBL document CHEMBL3217532, “New analyses of MIC90 data to aid antibacterial drug discovery” (2011).
Converted amounts (≈) assume the structure as drawn.

Key:
Type in all cases: functional
Pseudomonas aeruginosa [1] = experiment: Antimicrobial activity against Pseudomonas aeruginosa 1951-00
Pseudomonas aeruginosa [2] = experiment: Antimicrobial activity against Pseudomonas aeruginosa PA-4997
Pseudomonas aeruginosa [3] = experiment: Antimicrobial activity against Pseudomonas aeruginosa 1612-09
Pseudomonas aeruginosa [4] = experiment: Antimicrobial activity against Pseudomonas aeruginosa 1766-00
Pseudomonas aeruginosa [5] = experiment: Antimicrobial activity against Pseudomonas aeruginosa 1953-00
Pseudomonas aeruginosa [6] = experiment: Antimicrobial activity against Pseudomonas aeruginosa 1514-08
Pseudomonas aeruginosa [7] = experiment: Antimicrobial activity against Pseudomonas aeruginosa 1767-00
Pseudomonas aeruginosa [8] = experiment: Antimicrobial activity against Pseudomonas aeruginosa 1954-00
Pseudomonas aeruginosa [9] = experiment: Antimicrobial activity against Pseudomonas aeruginosa 1760-00
Pseudomonas aeruginosa [10] = experiment: Antimicrobial activity against Pseudomonas aeruginosa 1515-08
Pseudomonas aeruginosa [11] = experiment: Antimicrobial activity against Pseudomonas aeruginosa 1615-09
Pseudomonas aeruginosa [12] = experiment: Antimicrobial activity against Pseudomonas aeruginosa 1614-09
Pseudomonas aeruginosa [13] = experiment: Antimicrobial activity against Pseudomonas aeruginosa 1764-00
Pseudomonas aeruginosa [14] = experiment: Antimicrobial activity against Pseudomonas aeruginosa 1567-05
Pseudomonas aeruginosa [15] = experiment: Antimicrobial activity against Pseudomonas aeruginosa 1523-08
Pseudomonas aeruginosa [16] = experiment: Antimicrobial activity against Pseudomonas aeruginosa 1510-08
Pseudomonas aeruginosa [17] = experiment: Antimicrobial activity against Pseudomonas aeruginosa PA-4993
Pseudomonas aeruginosa [18] = experiment: Antimicrobial activity against Pseudomonas aeruginosa 1568-05
Pseudomonas aeruginosa [19] = experiment: Antimicrobial activity against Pseudomonas aeruginosa 1562-05
Pseudomonas aeruginosa [20] = experiment: Antimicrobial activity against Pseudomonas aeruginosa 1955-00
Pseudomonas aeruginosa [21] = experiment: Antimicrobial activity against Pseudomonas aeruginosa 1570-05
Pseudomonas aeruginosa [22] = experiment: Antimicrobial activity against Pseudomonas aeruginosa 1956-00
Pseudomonas aeruginosa [23] = experiment: Antimicrobial activity against Pseudomonas aeruginosa 1765-00
Pseudomonas aeruginosa [24] = experiment: Antimicrobial activity against Pseudomonas aeruginosa PA-1757
Pseudomonas aeruginosa [25] = experiment: Antimicrobial activity against Pseudomonas aeruginosa 1564-05
Pseudomonas aeruginosa [26] = experiment: Antimicrobial activity against Pseudomonas aeruginosa PA-4995
Pseudomonas aeruginosa [27] = experiment: Antimicrobial activity against Pseudomonas aeruginosa 1753-00
Pseudomonas aeruginosa [28] = experiment: Antimicrobial activity against Pseudomonas aeruginosa PA-75
Pseudomonas aeruginosa [29] = experiment: Antimicrobial activity against Pseudomonas aeruginosa 1509-08
Pseudomonas aeruginosa [30] = experiment: Antimicrobial activity against Pseudomonas aeruginosa 1521-08
Pseudomonas aeruginosa [31] = experiment: Antimicrobial activity against Pseudomonas aeruginosa 1752-00
Pseudomonas aeruginosa [32] = experiment: Antimicrobial activity against Pseudomonas aeruginosa 1952-00
Pseudomonas aeruginosa [33] = experiment: Antimicrobial activity against Pseudomonas aeruginosa 1563-00
Pseudomonas aeruginosa [34] = experiment: Antimicrobial activity against Pseudomonas aeruginosa 1565-05
Pseudomonas aeruginosa [35] = experiment: Antimicrobial activity against Pseudomonas aeruginosa 1561-05
Pseudomonas aeruginosa [36] = experiment: Antimicrobial activity against Pseudomonas aeruginosa 1512-08
Pseudomonas aeruginosa [37] = experiment: Antimicrobial activity against Pseudomonas aeruginosa PA-4991
Pseudomonas aeruginosa [38] = experiment: Antimicrobial activity against Pseudomonas aeruginosa 1526-08
Pseudomonas aeruginosa [39] = experiment: Antimicrobial activity against Pseudomonas aeruginosa PA-4990
Pseudomonas aeruginosa [40] = experiment: Antimicrobial activity against Pseudomonas aeruginosa 1611-09
Pseudomonas aeruginosa [41] = experiment: Antimicrobial activity against Pseudomonas aeruginosa 1761-00
Pseudomonas aeruginosa [42] = experiment: Antimicrobial activity against Pseudomonas aeruginosa PA-4999
Pseudomonas aeruginosa [43] = experiment: Antimicrobial activity against Pseudomonas aeruginosa 1569-05
Pseudomonas aeruginosa [44] = experiment: Antimicrobial activity against Pseudomonas aeruginosa 1527-08
Pseudomonas aeruginosa [45] = experiment: Antimicrobial activity against Pseudomonas aeruginosa 1566-05
Pseudomonas aeruginosa [46] = experiment: Antimicrobial activity against Pseudomonas aeruginosa 1619-08
Pseudomonas aeruginosa [47] = experiment: Antimicrobial activity against Pseudomonas aeruginosa PA-4624
Pseudomonas aeruginosa [48] = experiment: Antimicrobial activity against Pseudomonas aeruginosa 1513-08
Pseudomonas aeruginosa [49] = experiment: Antimicrobial activity against Pseudomonas aeruginosa 1768-00
Pseudomonas aeruginosa [50] = experiment: Antimicrobial activity against Pseudomonas aeruginosa 1613-09
Pseudomonas aeruginosa [51] = experiment: Antimicrobial activity against Pseudomonas aeruginosa 1957-00

Molecule `C[C@H]1[C@H](NC(=O)/C(=N\OC(C)(C)C(=O)O)c2csc(N)n2)C(=O)N1C(=O)NS(=O)(=O)n1nc(-c2cc(=O)c(O)c[nH]2)n(C[C@@H](O)CO)c1=O` has an MIC90 (Pseudomonas aeruginosa [1]) of 0.125 µg/mL (≈ 0.172 µM), an MIC90 (Pseudomonas aeruginosa [2]) of 0.125 µg/mL (≈ 0.172 µM) and an MIC90 (Pseudomonas aeruginosa [3]) of 0.25 µg/mL (≈ 0.343 µM). The MIC90 (Pseudomonas aeruginosa [4]) was 2 µg/mL (≈ 2.74 µM), the MIC90 (Pseudomonas aeruginosa [5]) was 0.25 µg/mL (≈ 0.343 µM) and the MIC90 (Pseudomonas aeruginosa [6]) was 0.25 µg/mL (≈ 0.343 µM). For the same molecule, the MIC90 (Pseudomonas aeruginosa [7]) was 0.06 µg/mL (≈ 0.0823 µM), the MIC90 (Pseudomonas aeruginosa [8]) was 0.015 µg/mL (≈ 0.0206 µM) and the MIC90 (Pseudomonas aeruginosa [9]) was 0.25 µg/mL (≈ 0.343 µM). It also gave an MIC90 (Pseudomonas aeruginosa [10]) of 0.125 µg/mL (≈ 0.172 µM), an MIC90 (Pseudomonas aeruginosa [11]) of 0.25 µg/mL (≈ 0.343 µM) and an MIC90 (Pseudomonas aeruginosa [12]) of 0.125 µg/mL (≈ 0.172 µM). For the same molecule, the MIC90 (Pseudomonas aeruginosa [13]) was 0.06 µg/mL (≈ 0.0823 µM), the MIC90 (Pseudomonas aeruginosa [14]) was 0.06 µg/mL (≈ 0.0823 µM) and the MIC90 (Pseudomonas aeruginosa [15]) was 0.125 µg/mL (≈ 0.172 µM). The MIC90 (Pseudomonas aeruginosa [16]) was 1 µg/mL (≈ 1.37 µM), the MIC90 (Pseudomonas aeruginosa [17]) was 0.03 µg/mL (≈ 0.0412 µM) and the MIC90 (Pseudomonas aeruginosa [18]) was 0.125 µg/mL (≈ 0.172 µM). It also gave an MIC90 (Pseudomonas aeruginosa [19]) of 0.06 µg/mL (≈ 0.0823 µM), an MIC90 (Pseudomonas aeruginosa [20]) of 0.06 µg/mL (≈ 0.0823 µM) and an MIC90 (Pseudomonas aeruginosa [21]) of 0.25 µg/mL (≈ 0.343 µM). The MIC90 (Pseudomonas aeruginosa [22]) was 0.03 µg/mL (≈ 0.0412 µM), the MIC90 (Pseudomonas aeruginosa [23]) was 0.5 µg/mL (≈ 0.686 µM) and the MIC90 (Pseudomonas aeruginosa [24]) was 4 µg/mL (≈ 5.49 µM). For the same molecule, the MIC90 (Pseudomonas aeruginosa [25]) was 0.06 µg/mL (≈ 0.0823 µM), the MIC90 (Pseudomonas aeruginosa [26]) was 0.03 µg/mL (≈ 0.0412 µM) and the MIC90 (Pseudomonas aeruginosa [27]) was 0.125 µg/mL (≈ 0.172 µM). The MIC90 (Pseudomonas aeruginosa [28]) was 0.25 µg/mL (≈ 0.343 µM), the MIC90 (Pseudomonas aeruginosa [29]) was 1 µg/mL (≈ 1.37 µM) and the MIC90 (Pseudomonas aeruginosa [30]) was 0.5 µg/mL (≈ 0.686 µM). The MIC90 (Pseudomonas aeruginosa [31]) was 0.125 µg/mL (≈ 0.172 µM), the MIC90 (Pseudomonas aeruginosa [32]) was 0.125 µg/mL (≈ 0.172 µM) and the MIC90 (Pseudomonas aeruginosa [33]) was 0.06 µg/mL (≈ 0.0823 µM). It also gave an MIC90 (Pseudomonas aeruginosa [34]) of 0.25 µg/mL (≈ 0.343 µM), an MIC90 (Pseudomonas aeruginosa [35]) of 0.5 µg/mL (≈ 0.686 µM) and an MIC90 (Pseudomonas aeruginosa [36]) of 0.125 µg/mL (≈ 0.172 µM). It also gave an MIC90 (Pseudomonas aeruginosa [37]) of 0.125 µg/mL (≈ 0.172 µM), an MIC90 (Pseudomonas aeruginosa [38]) of 0.125 µg/mL (≈ 0.172 µM) and an MIC90 (Pseudomonas aeruginosa [39]) of 0.25 µg/mL (≈ 0.343 µM). It also gave an MIC90 (Pseudomonas aeruginosa [40]) of 0.03 µg/mL (≈ 0.0412 µM), an MIC90 (Pseudomonas aeruginosa [41]) of 0.5 µg/mL (≈ 0.686 µM) and an MIC90 (Pseudomonas aeruginosa [42]) of 0.125 µg/mL (≈ 0.172 µM). It also gave an MIC90 (Pseudomonas aeruginosa [43]) of 0.25 µg/mL (≈ 0.343 µM), an MIC90 (Pseudomonas aeruginosa [44]) of 0.125 µg/mL (≈ 0.172 µM) and an MIC90 (Pseudomonas aeruginosa [45]) of 0.06 µg/mL (≈ 0.0823 µM). It also gave an MIC90 (Pseudomonas aeruginosa [46]) of 0.015 µg/mL (≈ 0.0206 µM), an MIC90 (Pseudomonas aeruginosa [47]) of 0.25 µg/mL (≈ 0.343 µM) and an MIC90 (Pseudomonas aeruginosa [48]) of 0.25 µg/mL (≈ 0.343 µM). For the same molecule, the MIC90 (Pseudomonas aeruginosa [49]) was 0.06 µg/mL (≈ 0.0823 µM), the MIC90 (Pseudomonas aeruginosa [50]) was 0.25 µg/mL (≈ 0.343 µM) and the MIC90 (Pseudomonas aeruginosa [51]) was 0.03 µg/mL (≈ 0.0412 µM).
With `CC1(C)[C@H](NC(=O)/C(=N\OCc2cc(=O)c(O)cn2O)c2csc(N)n2)C(=O)N1OS(=O)(=O)O` the MIC90 (Pseudomonas aeruginosa [1]) was 1 µg/mL (≈ 1.93 µM), the MIC90 (Pseudomonas aeruginosa [2]) was 1 µg/mL (≈ 1.93 µM) and the MIC90 (Pseudomonas aeruginosa [3]) was 16 µg/mL (≈ 30.9 µM). For the same molecule, the MIC90 (Pseudomonas aeruginosa [4]) was 0.5 µg/mL (≈ 0.964 µM), the MIC90 (Pseudomonas aeruginosa [5]) was 1 µg/mL (≈ 1.93 µM) and the MIC90 (Pseudomonas aeruginosa [6]) was 2 µg/mL (≈ 3.86 µM). It also gave an MIC90 (Pseudomonas aeruginosa [7]) of 0.5 µg/mL (≈ 0.964 µM), an MIC90 (Pseudomonas aeruginosa [8]) of 0.25 µg/mL (≈ 0.482 µM) and an MIC90 (Pseudomonas aeruginosa [9]) of 1 µg/mL (≈ 1.93 µM). For the same molecule, the MIC90 (Pseudomonas aeruginosa [10]) was 1 µg/mL (≈ 1.93 µM), the MIC90 (Pseudomonas aeruginosa [11]) was 1 µg/mL (≈ 1.93 µM) and the MIC90 (Pseudomonas aeruginosa [12]) was 0.5 µg/mL (≈ 0.964 µM). It also gave an MIC90 (Pseudomonas aeruginosa [13]) of 0.5 µg/mL (≈ 0.964 µM), an MIC90 (Pseudomonas aeruginosa [14]) of 0.5 µg/mL (≈ 0.964 µM) and an MIC90 (Pseudomonas aeruginosa [15]) of 1 µg/mL (≈ 1.93 µM). It also gave an MIC90 (Pseudomonas aeruginosa [16]) of 8 µg/mL (≈ 15.4 µM), an MIC90 (Pseudomonas aeruginosa [17]) of 0.5 µg/mL (≈ 0.964 µM) and an MIC90 (Pseudomonas aeruginosa [18]) of 0.5 µg/mL (≈ 0.964 µM). For the same molecule, the MIC90 (Pseudomonas aeruginosa [19]) was 1 µg/mL (≈ 1.93 µM), the MIC90 (Pseudomonas aeruginosa [20]) was 0.5 µg/mL (≈ 0.964 µM) and the MIC90 (Pseudomonas aeruginosa [21]) was 0.5 µg/mL (≈ 0.964 µM). It also gave an MIC90 (Pseudomonas aeruginosa [22]) of 0.5 µg/mL (≈ 0.964 µM), an MIC90 (Pseudomonas aeruginosa [23]) of 4 µg/mL (≈ 7.71 µM) and an MIC90 (Pseudomonas aeruginosa [24]) of 8 µg/mL (≈ 15.4 µM). The MIC90 (Pseudomonas aeruginosa [25]) was 0.5 µg/mL (≈ 0.964 µM), the MIC90 (Pseudomonas aeruginosa [26]) was 0.5 µg/mL (≈ 0.964 µM) and the MIC90 (Pseudomonas aeruginosa [27]) was 4 µg/mL (≈ 7.71 µM). The MIC90 (Pseudomonas aeruginosa [28]) was 0.5 µg/mL (≈ 0.964 µM), the MIC90 (Pseudomonas aeruginosa [29]) was 2 µg/mL (≈ 3.86 µM) and the MIC90 (Pseudomonas aeruginosa [30]) was 2 µg/mL (≈ 3.86 µM). For the same molecule, the MIC90 (Pseudomonas aeruginosa [31]) was 1 µg/mL (≈ 1.93 µM), the MIC90 (Pseudomonas aeruginosa [32]) was 1 µg/mL (≈ 1.93 µM) and the MIC90 (Pseudomonas aeruginosa [33]) was 0.5 µg/mL (≈ 0.964 µM). For the same molecule, the MIC90 (Pseudomonas aeruginosa [34]) was 0.5 µg/mL (≈ 0.964 µM), the MIC90 (Pseudomonas aeruginosa [35]) was 2 µg/mL (≈ 3.86 µM) and the MIC90 (Pseudomonas aeruginosa [36]) was 0.5 µg/mL (≈ 0.964 µM). It also gave an MIC90 (Pseudomonas aeruginosa [37]) of 1 µg/mL (≈ 1.93 µM), an MIC90 (Pseudomonas aeruginosa [38]) of 0.5 µg/mL (≈ 0.964 µM) and an MIC90 (Pseudomonas aeruginosa [39]) of 0.5 µg/mL (≈ 0.964 µM). The MIC90 (Pseudomonas aeruginosa [40]) was 0.125 µg/mL (≈ 0.241 µM), the MIC90 (Pseudomonas aeruginosa [41]) was 4 µg/mL (≈ 7.71 µM) and the MIC90 (Pseudomonas aeruginosa [42]) was 1 µg/mL (≈ 1.93 µM). For the same molecule, the MIC90 (Pseudomonas aeruginosa [43]) was 1 µg/mL (≈ 1.93 µM), the MIC90 (Pseudomonas aeruginosa [44]) was 1 µg/mL (≈ 1.93 µM) and the MIC90 (Pseudomonas aeruginosa [45]) was 1 µg/mL (≈ 1.93 µM). It also gave an MIC90 (Pseudomonas aeruginosa [46]) of 0.06 µg/mL (≈ 0.116 µM), an MIC90 (Pseudomonas aeruginosa [47]) of 1 µg/mL (≈ 1.93 µM) and an MIC90 (Pseudomonas aeruginosa [48]) of 1 µg/mL (≈ 1.93 µM). For the same molecule, the MIC90 (Pseudomonas aeruginosa [49]) was 0.5 µg/mL (≈ 0.964 µM), the MIC90 (Pseudomonas aeruginosa [50]) was 0.5 µg/mL (≈ 0.964 µM) and the MIC90 (Pseudomonas aeruginosa [51]) was 0.25 µg/mL (≈ 0.482 µM).
